Laboratory results reported in ChEMBL document CHEMBL1131866, “Stereoisomeric acylamidomorpholinium carnitine analogues: selective inhibitors of carnitine palmitoyltransferase I and II” (Bioorg Med Chem Lett, 1999).

Target: T1, Carnitine O-palmitoyltransferase 2, mitochondrial (Rattus norvegicus) (UniProt P18886)
T1 sequence (whole entry): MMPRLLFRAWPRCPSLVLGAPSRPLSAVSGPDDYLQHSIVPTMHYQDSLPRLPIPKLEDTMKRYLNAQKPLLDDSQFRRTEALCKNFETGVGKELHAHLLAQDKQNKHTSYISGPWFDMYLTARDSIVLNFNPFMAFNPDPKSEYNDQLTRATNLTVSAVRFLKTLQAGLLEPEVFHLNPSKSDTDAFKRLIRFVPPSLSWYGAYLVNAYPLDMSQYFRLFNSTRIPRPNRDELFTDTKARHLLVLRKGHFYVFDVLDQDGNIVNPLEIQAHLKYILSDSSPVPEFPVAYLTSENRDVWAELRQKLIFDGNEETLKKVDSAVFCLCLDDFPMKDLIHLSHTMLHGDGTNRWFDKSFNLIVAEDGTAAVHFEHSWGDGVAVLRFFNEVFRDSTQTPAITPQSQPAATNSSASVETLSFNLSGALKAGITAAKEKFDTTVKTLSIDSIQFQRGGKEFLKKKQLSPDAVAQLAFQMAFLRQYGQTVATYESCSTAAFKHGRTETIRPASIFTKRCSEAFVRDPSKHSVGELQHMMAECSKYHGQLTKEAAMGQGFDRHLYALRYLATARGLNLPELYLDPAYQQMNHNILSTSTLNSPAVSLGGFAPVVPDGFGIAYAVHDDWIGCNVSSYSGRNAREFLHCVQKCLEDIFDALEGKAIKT
Assay: Inhibitory activity against rat-liver mitochondrial Carnitine palmitoyl transferase II
Conditions: concentration not given here

Work on `CCCCCCCCCCCCCC(=O)NC[C@H]1C[N+](C)(C)C[C@@H](CC(=O)[O-])O1` yielded an inhibition of 41%.
